Data taken from PubChem BioAssay AID1963441 (Molecular Pharmacology Branch, DTP, NCI, 2024).
pIC50: −log10 of the molar value.

Test system: NCI-H1876 complex spheroid growth, % test/control
Test: Anticancer human tumor NCI-H1876 cell line growth inhibition [Asc];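 further: compound exposure lasted 7 days starting three days after seeding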;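 on viability, T/C: 100% = DMSO vehicle control wells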
Conditions: for pIC50: curve of first compound; for viability, T/C: stronger effect = lower value
In short: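 Complex spheroids combining tumor cells with HUVEC endothelial cells and human MSCs, at 37 degrees C, 5% CO2; agents tested alone or combined, half-log dilutions from at or near clinical Cmax, or 10 microM if Cmax unknown.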

[1] = second compound 0.00316 µM, first compound 0.0316 µM
[2] = second compound 0.00316 µM, first compound 0.1 µM
[3] = second compound 0.00316 µM, first compound 0.316 µM
[4] = second compound 0.00316 µM, first compound 1 µM
[5] = second compound 0.00316 µM, first compound 3.16 µM
[6] = second compound 0.00316 µM, first compound 10 µM
[7] = second compound 0.01 µM, first compound 0.0316 µM
[8] = second compound 0.01 µM, first compound 0.1 µM
[9] = second compound 0.01 µM, first compound 0.316 µM
[10] = second compound 0.01 µM, first compound 1 µM
[11] = second compound 0.01 µM, first compound 3.16 µM
[12] = second compound 0.01 µM, first compound 10 µM
[13] = second compound 0.0316 µM, first compound 0.0316 µM
[14] = second compound 0.0316 µM, first compound 0.1 µM
[15] = second compound 0.0316 µM, first compound 0.316 µM
[16] = second compound 0.0316 µM, first compound 1 µM
[17] = second compound 0.0316 µM, first compound 3.16 µM
[18] = second compound 0.0316 µM, first compound 10 µM
[19] = second compound 0.1 µM, first compound 0.0316 µM
[20] = second compound 0.1 µM, first compound 0.1 µM
[21] = second compound 0.1 µM, first compound 0.316 µM
[22] = second compound 0.1 µM, first compound 1 µM
[23] = second compound 0.1 µM, first compound 3.16 µM
[24] = second compound 0.1 µM, first compound 10 µM
[25] = second compound 0.316 µM, first compound 0.0316 µM
[26] = second compound 0.316 µM, first compound 0.1 µM
[27] = second compound 0.316 µM, first compound 0.316 µM
[28] = second compound 0.316 µM, first compound 1 µM
[29] = second compound 0.316 µM, first compound 3.16 µM
[30] = second compound 0.316 µM, first compound 10 µM
[31] = second compound 1 µM, first compound 0.0316 µM
[32] = second compound 1 µM, first compound 0.1 µM
[33] = second compound 1 µM, first compound 0.316 µM
[34] = second compound 1 µM, first compound 1 µM
[35] = second compound 1 µM, first compound 3.16 µM
[36] = second compound 1 µM, first compound 10 µM
[37] = second compound 0.00316 µM, first compound 0.00949 µM
[38] = second compound 0.00316 µM, first compound 0.03 µM
[39] = second compound 0.00316 µM, first compound 0.0949 µM
[40] = second compound 0.00316 µM, first compound 0.3 µM
[41] = second compound 0.00316 µM, first compound 0.949 µM
[42] = second compound 0.00316 µM, first compound 3 µM
[43] = second compound 0.01 µM, first compound 0.00949 µM
[44] = second compound 0.01 µM, first compound 0.03 µM
[45] = second compound 0.01 µM, first compound 0.0949 µM
[46] = second compound 0.01 µM, first compound 0.3 µM
[47] = second compound 0.01 µM, first compound 0.949 µM
[48] = second compound 0.01 µM, first compound 3 µM
[49] = second compound 0.0316 µM, first compound 0.00949 µM
[50] = second compound 0.0316 µM, first compound 0.03 µM
[51] = second compound 0.0316 µM, first compound 0.0949 µM
[52] = second compound 0.0316 µM, first compound 0.3 µM
[53] = second compound 0.0316 µM, first compound 0.949 µM
[54] = second compound 0.0316 µM, first compound 3 µM
[55] = second compound 0.1 µM, first compound 0.00949 µM
[56] = second compound 0.1 µM, first compound 0.03 µM
[57] = second compound 0.1 µM, first compound 0.0949 µM
[58] = second compound 0.1 µM, first compound 0.3 µM
[59] = second compound 0.1 µM, first compound 0.949 µM
[60] = second compound 0.1 µM, first compound 3 µM
[61] = second compound 0.316 µM, first compound 0.00949 µM
[62] = second compound 0.316 µM, first compound 0.03 µM
[63] = second compound 0.316 µM, first compound 0.0949 µM
[64] = second compound 0.316 µM, first compound 0.3 µM
[65] = second compound 0.316 µM, first compound 0.949 µM
[66] = second compound 0.316 µM, first compound 3 µM
[67] = second compound 1 µM, first compound 0.00949 µM
[68] = second compound 1 µM, first compound 0.03 µM
[69] = second compound 1 µM, first compound 0.0949 µM
[70] = second compound 1 µM, first compound 0.3 µM
[71] = second compound 1 µM, first compound 0.949 µM
[72] = second compound 1 µM, first compound 3 µM

C#Cc1c(F)ccc2cc(O)cc(-c3ncc4c(N5CC6CCC(C5)N6)nc(OCC56CCCN5CC(F)C6)nc4c3F)c12 (stereo not drawn) + CNC(C)C(=O)NC1CN(S(=O)(=O)c2cccc(S(=O)(=O)N3CCC4CCC(C(=O)NC(c5ccccc5)c5ccccc5)N4C(=O)C(NC(=O)C(C)NC)C3)c2)CCC2CCC(C(=O)NC(c3ccccc3)c3ccccc3)N2C1=O
pIC50 (second compound 0.00316 µM): < 5.00
pIC50 (second compound 0.01 µM): < 5.00
pIC50 (second compound 0.0316 µM): < 5.00
pIC50 (second compound 0.1 µM): < 5.00
pIC50 (second compound 0.316 µM): < 5.00
pIC50 (second compound 1 µM): < 5.00
viability, T/C [1]: 101%
viability, T/C [2]: 88.2%
viability, T/C [3]: 103%
viability, T/C [4]: 90.3%
viability, T/C [5]: 93.5%
viability, T/C [6]: 86.7%
viability, T/C [7]: 96.9%
viability, T/C [8]: 92.3%
viability, T/C [9]: 101%
viability, T/C [10]: 92.9%
viability, T/C [11]: 91.8%
viability, T/C [12]: 89.3%
viability, T/C [13]: 105%
viability, T/C [14]: 88.6%
viability, T/C [15]: 101%
viability, T/C [16]: 93.9%
viability, T/C [17]: 102%
viability, T/C [18]: 95.7%
viability, T/C [19]: 106%
viability, T/C [20]: 99.4%
viability, T/C [21]: 104%
viability, T/C [22]: 94.6%
viability, T/C [23]: 94.5%
viability, T/C [24]: 82.8%
viability, T/C [25]: 109%
viability, T/C [26]: 101%
viability, T/C [27]: 89.8%
viability, T/C [28]: 108%
viability, T/C [29]: 107%
viability, T/C [30]: 96%
viability, T/C [31]: 90.3%
viability, T/C [32]: 89.8%
viability, T/C [33]: 98%
viability, T/C [34]: 106%
viability, T/C [35]: 103%
viability, T/C [36]: 92.2%

C=C(F)C(=O)N1CCN(c2nc(OCC3CCCN3C)nc3c2CCN(c2cccc4cccc(Cl)c24)C3)CC1CC#N (stereo not drawn) + CNC(C)C(=O)NC1CN(S(=O)(=O)c2cccc(S(=O)(=O)N3CCC4CCC(C(=O)NC(c5ccccc5)c5ccccc5)N4C(=O)C(NC(=O)C(C)NC)C3)c2)CCC2CCC(C(=O)NC(c3ccccc3)c3ccccc3)N2C1=O
pIC50 (second compound 0.00316 µM): 5.25
pIC50 (second compound 0.01 µM): 5.25
pIC50 (second compound 0.0316 µM): 5.25
pIC50 (second compound 0.1 µM): 5.25
pIC50 (second compound 0.316 µM): 5.24
pIC50 (second compound 1 µM): 5.26
viability, T/C [1]: 96.9%
viability, T/C [2]: 97.3%
viability, T/C [3]: 110%
viability, T/C [4]: 89.3%
viability, T/C [5]: 99%
viability, T/C [6]: 0.33%
viability, T/C [7]: 104%
viability, T/C [8]: 96.2%
viability, T/C [9]: 103%
viability, T/C [10]: 103%
viability, T/C [11]: 98.4%
viability, T/C [12]: 1.04%
viability, T/C [13]: 106%
viability, T/C [14]: 91.5%
viability, T/C [15]: 98.2%
viability, T/C [16]: 95.2%
viability, T/C [17]: 103%
viability, T/C [18]: 0.33%
viability, T/C [19]: 98.2%
viability, T/C [20]: 95.4%
viability, T/C [21]: 102%
viability, T/C [22]: 115%
viability, T/C [23]: 100%
viability, T/C [24]: 0.52%
viability, T/C [25]: 106%
viability, T/C [26]: 98.7%
viability, T/C [27]: 107%
viability, T/C [28]: 96.3%
viability, T/C [29]: 108%
viability, T/C [30]: 0.32%
viability, T/C [31]: 96.2%
viability, T/C [32]: 85.5%
viability, T/C [33]: 92.1%
viability, T/C [34]: 102%
viability, T/C [35]: 97.2%
viability, T/C [36]: 0.37%

CCN1C(C(=O)NC23CCC(C(=O)O)(CC2)CC3)C(c2cccc(Cl)c2F)C2(C(=O)Nc3cc(Cl)ccc32)C12CCCCC2 (stereo not drawn) + CNC(C)C(=O)NC1CN(S(=O)(=O)c2cccc(S(=O)(=O)N3CCC4CCC(C(=O)NC(c5ccccc5)c5ccccc5)N4C(=O)C(NC(=O)C(C)NC)C3)c2)CCC2CCC(C(=O)NC(c3ccccc3)c3ccccc3)N2C1=O
pIC50 (second compound 0.00316 µM): < 5.52
pIC50 (second compound 0.01 µM): < 5.52
pIC50 (second compound 0.0316 µM): < 5.52
pIC50 (second compound 0.1 µM): < 5.52
pIC50 (second compound 0.316 µM): < 5.52
pIC50 (second compound 1 µM): < 5.52
viability, T/C [37]: 115%
viability, T/C [38]: 98%
viability, T/C [39]: 111%
viability, T/C [40]: 101%
viability, T/C [41]: 123%
viability, T/C [42]: 107%
viability, T/C [43]: 110%
viability, T/C [44]: 99.9%
viability, T/C [45]: 104%
viability, T/C [46]: 101%
viability, T/C [47]: 120%
viability, T/C [48]: 105%
viability, T/C [49]: 105%
viability, T/C [50]: 101%
viability, T/C [51]: 115%
viability, T/C [52]: 104%
viability, T/C [53]: 132%
viability, T/C [54]: 109%
viability, T/C [55]: 92.5%
viability, T/C [56]: 111%
viability, T/C [57]: 101%
viability, T/C [58]: 102%
viability, T/C [59]: 122%
viability, T/C [60]: 103%
viability, T/C [61]: 104%
viability, T/C [62]: 102%
viability, T/C [63]: 98.3%
viability, T/C [64]: 105%
viability, T/C [65]: 131%
viability, T/C [66]: 107%
viability, T/C [67]: 112%
viability, T/C [68]: 91.8%
viability, T/C [69]: 109%
viability, T/C [70]: 110%
viability, T/C [71]: 128%
viability, T/C [72]: 97.9%

Cc1nc(N2CCC3(CC2)COC(C)C3N)c(CO)nc1Sc1ccnc(N)c1Cl (stereo not drawn) + CNC(C)C(=O)NC1CN(S(=O)(=O)c2cccc(S(=O)(=O)N3CCC4CCC(C(=O)NC(c5ccccc5)c5ccccc5)N4C(=O)C(NC(=O)C(C)NC)C3)c2)CCC2CCC(C(=O)NC(c3ccccc3)c3ccccc3)N2C1=O
pIC50 (second compound 0.00316 µM): < 5.52
pIC50 (second compound 0.01 µM): < 5.52
pIC50 (second compound 0.0316 µM): < 5.52
pIC50 (second compound 0.1 µM): < 5.52
pIC50 (second compound 0.316 µM): < 5.52
pIC50 (second compound 1 µM): < 5.52
viability, T/C [37]: 100%
viability, T/C [38]: 92.7%
viability, T/C [39]: 91.2%
viability, T/C [40]: 80.7%
viability, T/C [41]: 92.6%
viability, T/C [42]: 79.8%
viability, T/C [43]: 91.7%
viability, T/C [44]: 91.9%
viability, T/C [45]: 92.7%
viability, T/C [46]: 81.2%
viability, T/C [47]: 85.7%
viability, T/C [48]: 92.1%
viability, T/C [49]: 94.4%
viability, T/C [50]: 86.1%
viability, T/C [51]: 98.8%
viability, T/C [52]: 84.8%
viability, T/C [53]: 87.6%
viability, T/C [54]: 89%
viability, T/C [55]: 93.9%
viability, T/C [56]: 88.4%
viability, T/C [57]: 82.9%
viability, T/C [58]: 86.5%
viability, T/C [59]: 86.4%
viability, T/C [60]: 84.3%
viability, T/C [61]: 94%
viability, T/C [62]: 93.8%
viability, T/C [63]: 87.9%
viability, T/C [64]: 92.7%
viability, T/C [65]: 85.9%
viability, T/C [66]: 77.2%
viability, T/C [67]: 94%
viability, T/C [68]: 91.8%
viability, T/C [69]: 94.4%
viability, T/C [70]: 90.5%
viability, T/C [71]: 84.5%
viability, T/C [72]: 74.8%
